Test results from ChEMBL document CHEMBL3045835, “Comparative study of conventional and microwave-assisted synthesis of some Schiff bases and their potential as antimicrobial agents” (2012).
≈ marks a conversion by molar mass, not a printed value.

Columns and labels:
Type in all cases: functional
Pseudomonas aeruginosa [1] = assay: Antibacterial activity against Pseudomonas aeruginosa MTCC 424 after 24 hr by broth dilution method; details: MTCC 424, 24 h
Micrococcus luteus = assay: Antibacterial activity against Micrococcus luteus MTCC 1538 after 24 hr by broth dilution method; details: MTCC 1538, 24 h
Bacillus pumilus = assay: Antibacterial activity against Bacillus pumilus MTCC 1456 after 24 hr by broth dilution method; details: MTCC 1456, 24 h
Staphylococcus aureus = assay: Antibacterial activity against Staphylococcus aureus MTCC 1430 after 24 hr by broth dilution method; details: MTCC 1430, 24 h
Bacillus subtilis = assay: Antibacterial activity against Bacillus subtilis MTCC 441 after 24 hr by broth dilution method; details: MTCC 441, 24 h
Pseudomonas fluorescens [2] = assay: Antibacterial activity against Pseudomonas fluorescens MTCC 2421 at 1000 ug/ml after 18 hr by cup-plate method; details: MTCC 2421, 18 h, read-out: DIZ
Pseudomonas fluorescens [3] = assay: Antibacterial activity against Pseudomonas fluorescens MTCC 2421 at 1500 ug/ml after 18 hr by cup-plate method; details: MTCC 2421, 18 h, read-out: DIZ
Pseudomonas fluorescens [4] = assay: Antibacterial activity against Pseudomonas fluorescens MTCC 2421 at 500 ug/ml after 18 hr by cup-plate method; details: MTCC 2421, 18 h, read-out: DIZ
Pseudomonas fluorescens [5] = assay: Antibacterial activity against Pseudomonas fluorescens MTCC 2421 at 200 ug/ml after 18 hr by cup-plate method; details: MTCC 2421, 18 h, read-out: DIZ
Penicillium chrysogenum [6] = assay: Antifungal activity against Penicillium chrysogenum MTCC 161 at 1500 ug/ml after 18 hr by cup-plate method; details: MTCC 161, 18 h, read-out: DIZ
Penicillium chrysogenum [7] = assay: Antifungal activity against Penicillium chrysogenum MTCC 161 at 1000 ug/ml after 18 hr by cup-plate method; details: MTCC 161, 18 h, read-out: DIZ
Penicillium chrysogenum [8] = assay: Antifungal activity against Penicillium chrysogenum MTCC 161 at 500 ug/ml after 18 hr by cup-plate method; details: MTCC 161, 18 h, read-out: DIZ
Penicillium chrysogenum [9] = assay: Antifungal activity against Penicillium chrysogenum MTCC 161 at 200 ug/ml after 18 hr by cup-plate method; details: MTCC 161, 18 h, read-out: DIZ
Penicillium chrysogenum [10] = assay: Antifungal activity against Penicillium chrysogenum MTCC 161 at 100 ug/ml after 18 hr by cup-plate method; details: MTCC 161, 18 h, read-out: DIZ
Aspergillus niger [11] = assay: Antifungal activity against Aspergillus niger MTCC 2546 at 1000 ug/ml after 18 hr by cup-plate method; details: MTCC 2546, 18 h, read-out: DIZ
Aspergillus niger [12] = assay: Antifungal activity against Aspergillus niger MTCC 2546 at 1500 ug/ml after 18 hr by cup-plate method; details: MTCC 2546, 18 h, read-out: DIZ
Aspergillus niger [13] = assay: Antifungal activity against Aspergillus niger MTCC 2546 at 500 ug/ml after 18 hr by cup-plate method; details: MTCC 2546, 18 h, read-out: DIZ
Aspergillus niger [14] = assay: Antifungal activity against Aspergillus niger MTCC 2546 at 100 ug/ml after 18 hr by cup-plate method; details: MTCC 2546, 18 h, read-out: DIZ
Aspergillus niger [15] = assay: Antifungal activity against Aspergillus niger MTCC 2546 at 200 ug/ml after 18 hr by cup-plate method; details: MTCC 2546, 18 h, read-out: DIZ
Escherichia coli [16] = assay: Antibacterial activity against Escherichia coli MTCC 1573 at 1500 ug/ml after 18 hr by cup-plate method; details: MTCC 1573, 18 h, read-out: DIZ
Escherichia coli [17] = assay: Antibacterial activity against Escherichia coli MTCC 1573 at 500 ug/ml after 18 hr by cup-plate method; details: MTCC 1573, 18 h, read-out: DIZ
Escherichia coli [18] = assay: Antibacterial activity against Escherichia coli MTCC 1573 at 1000 ug/ml after 18 hr by cup-plate method; details: MTCC 1573, 18 h, read-out: DIZ
Escherichia coli [19] = assay: Antibacterial activity against Escherichia coli MTCC 1573 at 200 ug/ml after 18 hr by cup-plate method; details: MTCC 1573, 18 h, read-out: DIZ
Escherichia coli [20] = assay: Antibacterial activity against Escherichia coli MTCC 1573 at 100 ug/ml after 18 hr by cup-plate method; details: MTCC 1573, 18 h, read-out: DIZ
Pseudomonas fluorescens [21] = assay: Antibacterial activity against Pseudomonas fluorescens MTCC 2421 at 100 ug/ml after 18 hr by cup-plate method; details: MTCC 2421, 18 h, read-out: DIZ
Pseudomonas aeruginosa [22] = assay: Antibacterial activity against Pseudomonas aeruginosa MTCC 424 at 1500 ug/ml after 18 hr by cup-plate method; details: MTCC 424, 18 h, read-out: DIZ
Pseudomonas aeruginosa [23] = assay: Antibacterial activity against Pseudomonas aeruginosa MTCC 424 at 1000 ug/ml after 18 hr by cup-plate method; details: MTCC 424, 18 h, read-out: DIZ

C(=N\c1nc[nH]n1)/c1cccs1
MIC (Pseudomonas aeruginosa [1]): 200 µg/mL (≈ 1120 µM) | MIC (Micrococcus luteus): 200 µg/mL (≈ 1120 µM) | MIC (Bacillus pumilus): 200 µg/mL (≈ 1120 µM) | MIC (Staphylococcus aureus): 300 µg/mL (≈ 1680 µM) | MIC (Bacillus subtilis): 300 µg/mL (≈ 1680 µM) | zone of inhibition at 1000 µg/mL (Pseudomonas fluorescens [2]): 18 mm | zone of inhibition at 1500 µg/mL (Pseudomonas fluorescens [3]): 21 mm | zone of inhibition at 500 µg/mL (Pseudomonas fluorescens [4]): 15 mm | zone of inhibition at 200 µg/mL (Pseudomonas fluorescens [5]): 13 mm | zone of inhibition at 1500 µg/mL (Penicillium chrysogenum [6]): 19 mm | zone of inhibition at 1000 µg/mL (Penicillium chrysogenum [7]): 18 mm | zone of inhibition at 500 µg/mL (Penicillium chrysogenum [8]): 16 mm | zone of inhibition at 200 µg/mL (Penicillium chrysogenum [9]): 15 mm | zone of inhibition at 100 µg/mL (Penicillium chrysogenum [10]): 13 mm | zone of inhibition at 1000 µg/mL (Aspergillus niger [11]): 16 mm | zone of inhibition at 1500 µg/mL (Aspergillus niger [12]): 19 mm | zone of inhibition at 500 µg/mL (Aspergillus niger [13]): 15 mm | zone of inhibition at 100 µg/mL (Aspergillus niger [14]): 11 mm | zone of inhibition at 200 µg/mL (Aspergillus niger [15]): 13 mm | zone of inhibition at 1500 µg/mL (Escherichia coli [16]): 21 mm | zone of inhibition at 500 µg/mL (Escherichia coli [17]): 18 mm | zone of inhibition at 1000 µg/mL (Escherichia coli [18]): 20 mm | zone of inhibition at 200 µg/mL (Escherichia coli [19]): 16 mm | zone of inhibition at 100 µg/mL (Escherichia coli [20]): 14 mm | zone of inhibition at 100 µg/mL (Pseudomonas fluorescens [21]): 11 mm | zone of inhibition at 1500 µg/mL (Pseudomonas aeruginosa [22]): 20 mm | zone of inhibition at 1000 µg/mL (Pseudomonas aeruginosa [23]): 18 mm
